One experiment relates to HUVEC. Put plainly: Antiproliferative activity against HUVEC after 72 hrs by WST8 dye reduction assay. The format is functional, cell-based. The conditions noted are these: Homo sapiens. A general note: Formazan colour is commonly taken as a measure of viable cells.
Experiment [1] concerns the target Vascular endothelial growth factor receptor 2 (Homo sapiens, UniProt P35968). Put plainly: Inhibition of KDR after 2 hrs incubation.

Consider one compound from ChEMBL document CHEMBL1158547, “KDR Kinase Inhibitor Isolated from the Mushroom Boletopsis leucomelas” (J Nat Prod, 2010).

Vascular endothelial growth factor receptor 2, sequence (P35968 whole entry): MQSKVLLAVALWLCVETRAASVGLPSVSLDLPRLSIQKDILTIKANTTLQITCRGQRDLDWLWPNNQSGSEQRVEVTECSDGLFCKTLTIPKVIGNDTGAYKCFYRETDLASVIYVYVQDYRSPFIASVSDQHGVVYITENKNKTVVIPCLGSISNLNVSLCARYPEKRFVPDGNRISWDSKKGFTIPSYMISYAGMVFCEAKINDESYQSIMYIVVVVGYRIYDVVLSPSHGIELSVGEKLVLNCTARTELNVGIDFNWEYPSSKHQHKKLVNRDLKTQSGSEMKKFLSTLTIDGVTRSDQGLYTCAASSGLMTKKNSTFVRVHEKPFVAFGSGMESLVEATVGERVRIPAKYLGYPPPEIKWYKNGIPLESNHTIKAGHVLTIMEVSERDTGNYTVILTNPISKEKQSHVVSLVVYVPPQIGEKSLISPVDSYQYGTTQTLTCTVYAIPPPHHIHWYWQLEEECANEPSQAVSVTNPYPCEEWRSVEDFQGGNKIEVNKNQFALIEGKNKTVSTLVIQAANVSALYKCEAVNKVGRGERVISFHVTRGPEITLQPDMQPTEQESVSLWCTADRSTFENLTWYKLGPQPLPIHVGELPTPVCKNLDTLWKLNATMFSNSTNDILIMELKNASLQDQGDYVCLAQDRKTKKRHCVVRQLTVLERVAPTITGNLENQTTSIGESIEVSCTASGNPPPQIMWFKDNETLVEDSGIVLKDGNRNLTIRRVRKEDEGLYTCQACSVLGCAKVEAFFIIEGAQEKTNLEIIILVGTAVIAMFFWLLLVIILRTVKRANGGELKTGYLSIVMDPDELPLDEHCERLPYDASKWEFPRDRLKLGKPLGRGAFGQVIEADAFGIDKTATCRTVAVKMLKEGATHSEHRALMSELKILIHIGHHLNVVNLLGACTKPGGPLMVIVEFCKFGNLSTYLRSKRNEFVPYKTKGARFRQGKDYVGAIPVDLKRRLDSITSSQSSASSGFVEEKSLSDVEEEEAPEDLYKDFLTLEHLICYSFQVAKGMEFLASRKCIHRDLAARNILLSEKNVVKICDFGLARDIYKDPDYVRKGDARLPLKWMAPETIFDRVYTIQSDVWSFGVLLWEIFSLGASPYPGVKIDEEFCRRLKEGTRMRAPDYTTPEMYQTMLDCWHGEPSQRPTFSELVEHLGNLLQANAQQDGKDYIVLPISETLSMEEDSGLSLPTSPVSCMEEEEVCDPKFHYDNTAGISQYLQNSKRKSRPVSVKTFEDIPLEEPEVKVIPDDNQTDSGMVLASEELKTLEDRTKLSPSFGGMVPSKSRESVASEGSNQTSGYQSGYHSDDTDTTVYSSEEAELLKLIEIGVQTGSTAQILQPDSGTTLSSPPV

As a reminder, the IC50 is the concentration that gives 50% inhibition. A high value points to lower potency. For `CC(=O)Oc1c(-c2ccc(O)c(O)c2)c(O)c(O)c2c1oc1cc(O)c(O)cc12` [BOLETOPSIN C], the values for the IC50 (in the experiment with HUVEC; in experiment [1]) were 9.04 µM and 70.7 µM, respectively.
